System: Plasmodium berghei
Test: Luciferase/luciferin-expressing antifolate-resistant parasites were used to infect a culture of HepG2 cells that were pre-incubated with compounds. Infected hepatocytes emit light due to the luciferase reaction. Assay results are presented as the percent inhibition of light emission compared to control. […]
Format: functional
Conditions: sporozoite; for IC90: read-out: LUCIFERASE INFECTION ASSAY - IC90

SMILES	IC90 [µM]	also measured
COc1ccc(-c2csc3ncnc(N4CCN(c5ccccc5[N+](=O)[O-])CC4)c23)cc1	> 10	IC50 (HEPG2TOX_HILL_SLOPE 5.61, HEPG2TOX_R_SQUARED 0.324, PBLUC_HILL_SLOPE 1.94, 2.89, PBLUC_R_SQUARED 0.358, 0.293, read-out: LUCIFERASE INFECTION ASSAY - IC50): 6.64 µM
O=C(Cn1ncc(Cl)c(Cl)c1=O)N1CCc2ccccc21	> 10	IC50 (HEPG2TOX_HILL_SLOPE 5.62, HEPG2TOX_R_SQUARED 0.657, PBLUC_HILL_SLOPE 20.9, PBLUC_R_SQUARED 0.129, read-out: LUCIFERASE INFECTION ASSAY - IC50): 9.19 µM
N=C(N)NN=C1CCCCCCCCCCC1	> 12	IC50 (HEPG2TOX_HILL_SLOPE 5.24, 2.64, HEPG2TOX_R_SQUARED 0.916, 0.913, PBLUC_HILL_SLOPE 15.5, 3.20, PBLUC_R_SQUARED 0.175, 0.492, read-out: LUCIFERASE INFECTION ASSAY - IC50): 11.7 µM
Cc1ccc(Cl)cc1NC(=O)C[n+]1ccc(Cc2ccc([N+](=O)[O-])cc2)cc1	> 10	IC50 (HEPG2TOX_HILL_SLOPE 5.4, HEPG2TOX_R_SQUARED 0.89, PBLUC_HILL_SLOPE 4.32, PBLUC_R_SQUARED 0.492, read-out: LUCIFERASE INFECTION ASSAY - IC50): 6.22 µM
c1ccc2c(c1)oc1c(-c3ccc4nccn4c3)cccc12	> 11.6	IC50 (HEPG2TOX_HILL_SLOPE 5.27, HEPG2TOX_R_SQUARED 0.667, PBLUC_HILL_SLOPE 2.08, PBLUC_R_SQUARED 0.703, read-out: LUCIFERASE INFECTION ASSAY - IC50): 4.57 µM
Oc1ccc(Cl)cc1/C=C/c1ccc2cccc(O)c2n1	6.73	IC50 (HEPG2TOX_HILL_SLOPE 5.53, HEPG2TOX_R_SQUARED 0.986, PBLUC_HILL_SLOPE 37.8, PBLUC_R_SQUARED 0.36, read-out: LUCIFERASE INFECTION ASSAY - IC50): 6.35 µM
Cc1c(Cl)cccc1N=C(SCC(=O)N1CCCCCC1)C(C#N)c1nc2ccccc2s1 (centres undefined)	> 10	IC50 (HEPG2TOX_HILL_SLOPE 5.36, HEPG2TOX_R_SQUARED 0.816, PBLUC_HILL_SLOPE 12.3, PBLUC_R_SQUARED 0.271, read-out: LUCIFERASE INFECTION ASSAY - IC50): 8.92 µM
Cc1ccc(C(C)CCN2CCC3(CC2)C(=O)N(C2Cc4ccccc4C2)C(=O)N3CC(C)C)o1 (centres undefined)	> 6.91	IC50 (HEPG2TOX_HILL_SLOPE 5.24, HEPG2TOX_R_SQUARED 0.932, PBLUC_HILL_SLOPE 15.5, PBLUC_R_SQUARED 0.389, read-out: LUCIFERASE INFECTION ASSAY - IC50): 6.38 µM
CCCNC(=O)c1c(NC(=O)c2ccc(F)c(F)c2F)nc2ccccn12	> 8.77	IC50 (HEPG2TOX_HILL_SLOPE 5.13, HEPG2TOX_R_SQUARED 0.252, PBLUC_HILL_SLOPE 2.06, PBLUC_R_SQUARED 0.791, read-out: LUCIFERASE INFECTION ASSAY - IC50): 6.47 µM
Oc1ccc(Cl)cc1/C=N/Nc1cccc(C(F)(F)F)c1	> 10.5	IC50 (HEPG2TOX_HILL_SLOPE 5.54, HEPG2TOX_R_SQUARED 0.477, read-out: LUCIFERASE INFECTION ASSAY - IC50): > 10.5 µM
COc1ccc(C(=O)OCC(=O)Nc2sccc2C(N)=O)cc1S(=O)(=O)N1CCCCC1C (centres undefined)	> 10	IC50 (HEPG2TOX_HILL_SLOPE 5.31, HEPG2TOX_R_SQUARED 0.826, PBLUC_HILL_SLOPE 1.98, PBLUC_R_SQUARED 0.24, read-out: LUCIFERASE INFECTION ASSAY - IC50): 5.17 µM
COc1ccccc1NC(=O)NCc1nc(-c2ccccc2)c[nH]1	5.1	IC50 (HEPG2TOX_HILL_SLOPE 5.47, HEPG2TOX_R_SQUARED 0.951, PBLUC_HILL_SLOPE 7.77, PBLUC_R_SQUARED 0.194, read-out: LUCIFERASE INFECTION ASSAY - IC50): 3.84 µM
COc1ccc(OC)c(CCNc2nc3cnc(-c4cccc(Cl)c4)cc3n2C)c1	1.4	IC50 (HEPG2TOX_HILL_SLOPE 5.61, HEPG2TOX_R_SQUARED 0.886, PBLUC_HILL_SLOPE 7.64, PBLUC_R_SQUARED 0.579, read-out: LUCIFERASE INFECTION ASSAY - IC50): 1.05 µM
CC1CCc2ccccc2N1CC(=O)c1cccn1C (centres undefined)	> 10	IC50 (HEPG2TOX_HILL_SLOPE 5.07, HEPG2TOX_R_SQUARED 0.0101, read-out: LUCIFERASE INFECTION ASSAY - IC50): > 10 µM
N#CC(Cc1cccc([N+](=O)[O-])c1)(c1ccccc1)c1ccccc1	> 10	IC50 (HEPG2TOX_HILL_SLOPE 5.53, HEPG2TOX_R_SQUARED 0.223, PBLUC_HILL_SLOPE 1.93, PBLUC_R_SQUARED 0.0999, read-out: LUCIFERASE INFECTION ASSAY - IC50): > 10 µM
O=C(NC1CCOc2ccccc21)c1ccccc1Oc1ccccc1 (centres undefined)	> 10	IC50 (HEPG2TOX_HILL_SLOPE 5.41, HEPG2TOX_R_SQUARED 0.0143, read-out: LUCIFERASE INFECTION ASSAY - IC50): > 10 µM

SMILES	IC90 [µM]	also measured
COc1ccc(C2c3c(C)nn(-c4ccccc4)c3N=C(c3ccccc3F)N2C2CC2)cc1 (centres undefined)	> 10	IC50 (HEPG2TOX_HILL_SLOPE 5.27, HEPG2TOX_R_SQUARED 0.234, read-out: LUCIFERASE INFECTION ASSAY - IC50): > 10 µM
CCC(C)(C)c1ccc(Oc2ccc(NC(=O)c3ccc(OC(F)F)c(OC)c3)cc2)cc1	> 10	IC50 (HEPG2TOX_HILL_SLOPE 5.1, HEPG2TOX_R_SQUARED 0.781, PBLUC_HILL_SLOPE 1.15, PBLUC_R_SQUARED 0.697, read-out: LUCIFERASE INFECTION ASSAY - IC50): 2.6 µM
CCOC(=O)c1sc(N(NC(=O)c2ccccc2Cl)C(=O)c2ccccc2Cl)c2c1CC(C)(C)CC2=O	> 5.9	IC50 (HEPG2TOX_HILL_SLOPE 5.11, HEPG2TOX_R_SQUARED 0.645, PBLUC_HILL_SLOPE 3.24, PBLUC_R_SQUARED 0.155, read-out: LUCIFERASE INFECTION ASSAY - IC50): 3.1 µM
COCCCN1C(=O)N(Cc2ccccc2)C(=O)C12CCN(Cc1cccc(C(F)(F)F)c1)CC2	> 6.74	IC50 (HEPG2TOX_HILL_SLOPE 5.47, HEPG2TOX_R_SQUARED 0.316, read-out: LUCIFERASE INFECTION ASSAY - IC50): > 6.74 µM
Cc1cc2c(cc1C)C(NCCc1ccccc1)=NC(C)(C)C2	5.1	IC50 (HEPG2TOX_HILL_SLOPE 5.51, HEPG2TOX_R_SQUARED 0.604, PBLUC_HILL_SLOPE 9.09, PBLUC_R_SQUARED 0.396, read-out: LUCIFERASE INFECTION ASSAY - IC50): 4 µM
FC(F)(F)c1nc2ccccc2n1-c1cc(-c2ccccc2)n[nH]1	> 10	IC50 (HEPG2TOX_HILL_SLOPE 5.49, HEPG2TOX_R_SQUARED 0.606, read-out: LUCIFERASE INFECTION ASSAY - IC50): > 10 µM
COC(=O)c1c(C)[nH]c(C(=O)Nc2nc(-c3cc(C)sc3C)cs2)c1C	> 10	IC50 (HEPG2TOX_HILL_SLOPE 5.44, HEPG2TOX_R_SQUARED 0.234, read-out: LUCIFERASE INFECTION ASSAY - IC50): > 10 µM
Cc1cc(C(O)(C(F)(F)F)C(F)(F)F)c(C)n1-c1ccc(N(C)C)cc1	> 10	IC50 (HEPG2TOX_HILL_SLOPE 5.45, HEPG2TOX_R_SQUARED 0.58, PBLUC_HILL_SLOPE 4.49, PBLUC_R_SQUARED 0.403, read-out: LUCIFERASE INFECTION ASSAY - IC50): 7.53 µM
COc1ccc(NS(=O)(=O)c2ccc3oc(Nc4cc(C)on4)nc3c2)cc1	9.75	IC50 (HEPG2TOX_HILL_SLOPE 5.63, HEPG2TOX_R_SQUARED 0.393, PBLUC_HILL_SLOPE 4.89, PBLUC_R_SQUARED 0.566, read-out: LUCIFERASE INFECTION ASSAY - IC50): 6.22 µM
CCc1ccc(NC(=O)c2ccc(S(=O)(=O)N(C)C)cc2)cc1	> 9.93	IC50 (HEPG2TOX_HILL_SLOPE 5.62, HEPG2TOX_R_SQUARED 0.338, PBLUC_HILL_SLOPE 17.2, PBLUC_R_SQUARED 0.289, read-out: LUCIFERASE INFECTION ASSAY - IC50): 9.7 µM
N#Cc1cccc(CN2CCN3C(C(=O)Nc4ccc(Oc5ccccc5)cc4)=COC3=NC2=O)c1	> 10	IC50 (HEPG2TOX_HILL_SLOPE 5.43, HEPG2TOX_R_SQUARED 0.0351, read-out: LUCIFERASE INFECTION ASSAY - IC50): > 10 µM
FC(F)(F)c1cnc(N/N=C/c2cn(-c3ccccc3)nc2-c2cc3ccccc3o2)c(Cl)c1	> 10	IC50 (HEPG2TOX_HILL_SLOPE 5.1, HEPG2TOX_R_SQUARED 0.771, read-out: LUCIFERASE INFECTION ASSAY - IC50): > 10 µM
Cc1cccc(COc2cccc(C(=O)Nc3cccc(Cn4ccnc4)c3)c2)c1	> 10	IC50 (HEPG2TOX_HILL_SLOPE 5.55, HEPG2TOX_R_SQUARED 0.818, PBLUC_HILL_SLOPE 3.46, PBLUC_R_SQUARED 0.301, read-out: LUCIFERASE INFECTION ASSAY - IC50): 6.78 µM
S=C(NCc1ccccc1Cl)NC12CC3CC(CC(C3)C1)C2	> 9.85	IC50 (HEPG2TOX_HILL_SLOPE 5.09, HEPG2TOX_R_SQUARED 0.92, PBLUC_HILL_SLOPE 1.78, PBLUC_R_SQUARED 0.451, read-out: LUCIFERASE INFECTION ASSAY - IC50): 7.44 µM
CCC(C)NC(=O)c1c(NC(=O)c2ccc(F)cc2)nc2ccc(C)cn12 (centres undefined)	3.49	IC50 (HEPG2TOX_HILL_SLOPE 5.39, HEPG2TOX_R_SQUARED 0.713, PBLUC_HILL_SLOPE 10.6, PBLUC_R_SQUARED 0.548, read-out: LUCIFERASE INFECTION ASSAY - IC50): 2.84 µM
CN(CCOc1ccccc1)C(=O)c1ccc(Cl)c(S(=O)(=O)N(Cc2ccccc2)c2ccccc2)c1	> 10	IC50 (HEPG2TOX_HILL_SLOPE 5.5, HEPG2TOX_R_SQUARED 0.0292, PBLUC_HILL_SLOPE 16, PBLUC_R_SQUARED 0.261, read-out: LUCIFERASE INFECTION ASSAY - IC50): 9.56 µM

Reference: ChEMBL document CHEMBL4483862, “Open-source discovery of chemical leads for next-generation chemoprotective antimalarials” (2018)
